Measurements from PubChem BioAssay (NCI).
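The concentration for 50% growth inhibition is given as GI50. TGI: total growth inhibition.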

What was measured:
Experiment in all cases: inhibition of tumour cell growth, NCI panel, 384-well format
786-0 renal = tested on: 786-0 renal
A498 renal = tested on: A498 renal
A549 NSCLC = tested on: A549 NSCLC
ACHN renal = tested on: ACHN renal
BT-549 breast = tested on: BT-549 breast
CAKI-1 renal = tested on: CAKI-1 renal
CCRF-CEM leukemia = tested on: CCRF-CEM leukemia
COLO 205 colon = tested on: COLO 205 colon
DU-145 prostate = tested on: DU-145 prostate
EKVX NSCLC = tested on: EKVX NSCLC
HCC-2998 colon = tested on: HCC-2998 colon
HCT-116 colon = tested on: HCT-116 colon
HCT-15 colon = tested on: HCT-15 colon
HL-60(TB) leukemia = tested on: HL-60(TB) leukemia
HOP-62 NSCLC = tested on: HOP-62 NSCLC
HOP-92 NSCLC = tested on: HOP-92 NSCLC
HS 578T breast = tested on: HS 578T breast
HT29 colon = tested on: HT29 colon
IGROV1 ovarian = tested on: IGROV1 ovarian
K-562 leukemia = tested on: K-562 leukemia
KM12 colon = tested on: KM12 colon
LOX IMVI melanoma = tested on: LOX IMVI melanoma
M14 melanoma = tested on: M14 melanoma
MALME-3M melanoma = tested on: MALME-3M melanoma
MCF7 breast = tested on: MCF7 breast
MDA-MB-231 breast = tested on: MDA-MB-231 breast
MDA-MB-435 melanoma = tested on: MDA-MB-435 melanoma
MDA-MB-468 breast = tested on: MDA-MB-468 breast
MOLT-4 leukemia = tested on: MOLT-4 leukemia
NCI-H226 lung = tested on: NCI-H226 lung
NCI-H23 lung = tested on: NCI-H23 lung

O=C(c1ccc(Oc2ccccc2)cc1Cl)c1c[nH]c2ncnc(N[C@@H]3CC[C@@H](CO)OC3)c12
GI50 ([…]-0 renal): 1.11 µM | TGI (786-0 renal): 4.61 µM | GI50 (A498 renal): 0.519 µM | TGI (A498 renal): 2.77 µM | GI50 (A549 NSCLC): 0.244 µM | TGI (A549 NSCLC): 1.54 µM | GI50 (ACHN renal): 0.121 µM | TGI (ACHN renal): 0.983 µM | GI50 (BT-549 breast): 0.313 µM | TGI (BT-549 breast): 1.46 µM | GI50 (CAKI-1 renal): 0.261 µM | TGI (CAKI-1 renal): 1.44 µM | GI50 (CCRF-CEM leukemia): 1.59 µM | TGI (CCRF-CEM leukemia): 3.4 µM | GI50 (COLO 205 colon): 0.0177 µM | TGI (COLO 205 colon): 0.113 µM | GI50 (DU-145 prostate): 0.354 µM | TGI (DU-145 prostate): 1.48 µM | GI50 (EKVX NSCLC): 0.113 µM | TGI (EKVX NSCLC): 1.07 µM | GI50 (HCC-2998 colon): 0.0299 µM | TGI (HCC-2998 colon): 0.204 µM | GI50 (HCT-116 colon): 0.248 µM | TGI (HCT-116 colon): 1.11 µM | GI50 (HCT-15 colon): 0.51 µM | TGI (HCT-15 colon): 3.34 µM | GI50 (HL-60(TB) leukemia): 0.0368 µM | TGI (HL-60(TB) leukemia): 0.196 µM | GI50 (HOP-62 NSCLC): 0.638 µM | TGI (HOP-62 NSCLC): 2.66 µM | GI50 (HOP-92 NSCLC): 0.273 µM | TGI (HOP-92 NSCLC): 1.19 µM | GI50 (HS 578T breast): 0.7 µM | TGI (HS 578T breast): 2.12 µM | GI50 (HT29 colon): 0.0334 µM | TGI (HT29 colon): 1.3 µM | GI50 (IGROV1 ovarian): 0.0306 µM | TGI (IGROV1 ovarian): 0.987 µM | GI50 (K-562 leukemia): 0.153 µM | TGI (K-562 leukemia): 0.399 µM | GI50 (KM12 colon): 0.0194 µM | TGI (KM12 colon): 0.171 µM | GI50 (LOX IMVI melanoma): 0.0331 µM | TGI (LOX IMVI melanoma): 0.161 µM | TGI (M14 melanoma): 0.0489 µM | TGI (MALME-3M melanoma): 0.0247 µM | GI50 (MCF7 breast): 0.255 µM | TGI (MCF7 breast): 1.91 µM | GI50 (MDA-MB-231 breast): 0.0463 µM | TGI (MDA-MB-231 breast): 0.207 µM | GI50 (MDA-MB-435 melanoma): 0.017 µM | TGI (MDA-MB-435 melanoma): 0.17 µM | GI50 (MDA-MB-468 breast): 0.303 µM | TGI (MDA-MB-468 breast): 1.87 µM | GI50 (MOLT-4 leukemia): 0.296 µM | TGI (MOLT-4 leukemia): 1.82 µM | GI50 (NCI-H226 lung): 0.135 µM | TGI (NCI-H226 lung): 0.937 µM | GI50 (NCI-H23 lung): 0.067 µM
